Data taken from ChEMBL document CHEMBL3351836, “Inhibition of carbonic anhydrase isoforms I, II, IX and XII with novel Schiff bases: identification of selective inhibitors for the tumor-associated isoforms over the cytosolic ones” (Bioorg Med Chem, 2014).

Molecular target: Carbonic anhydrase 9 (Homo sapiens, UniProt Q16790)
Experiment: Inhibition of human CA-9 after 15 mins by stopped-flow CO2 hydration method

| SMILES | Ki [nM] |
| --- | --- |
| NS(=O)(=O)c1ccc(CC/N=C/c2cccc(Br)c2O)cc1 | 251 |
| NS(=O)(=O)c1ccc(CC/N=C/c2ccc(S(=O)(=O)O)o2)cc1 | 193 |
| CSc1ccc(/C=N/CCc2ccc(S(N)(=O)=O)cc2)cc1 | 23.6 |
| NS(=O)(=O)c1ccc(CC/N=C/c2ccc(-c3ccccc3)cc2)cc1 | 244 |
| NS(=O)(=O)c1ccc(CC/N=C/c2ccc(Br)cc2O)cc1 | 106 |
| NS(=O)(=O)c1ccc(/N=C/c2ccc(Br)cc2O)cc1 | 28.1 |
| NS(=O)(=O)c1ccc(CC/N=C/c2ccc(-c3ccccn3)cc2)cc1 | 27.9 |
| NS(=O)(=O)c1ccc(/N=C/c2ccco2)c(F)c1 | 165 |
| COc1cc([N+](=O)[O-])ccc1/C=N/CCc1ccc(S(N)(=O)=O)cc1 | 154 |
| NS(=O)(=O)c1ccc(CC/N=C/c2c[nH]c3ccc(Br)cc23)cc1 | 1880 |
| NS(=O)(=O)c1ccc(/N=C/c2ccc(-c3ccccn3)cc2)cc1 | 162 |
| NS(=O)(=O)c1ccc(/N=C/c2csc3ccccc23)cc1 | 197 |
| COc1ccc(/C=N/CCc2ccc(S(N)(=O)=O)cc2)c(O)c1 | 1870 |
| NS(=O)(=O)c1ccc(/N=C/c2ccc(-c3ccccc3)cc2)c(F)c1 | 113 |
| NS(=O)(=O)c1ccc(CC/N=C/c2c(F)c(F)cc(F)c2F)cc1 | 213 |
| N#Cc1ccc(/C=N/CCc2ccc(S(N)(=O)=O)cc2)cc1 | 18.5 |
